According to patent publication US10906878B2, “Kinase inhibitors for the treatment of disease” (Dana-Farber Cancer Institute, Inc., priority 2013, dated 2021):
Where two headings read alike, the source gives them in different places.

Legend:
Assay type in all cases: cell-based
KIF5B/Ret_V804M = assay: Ba/F3 cell growth inhibition (MTS assay), KIF5B/Ret_V804M
Experimental: (§1) Growth and inhibition of growth was assessed by MTS assay. This assay, a colorimetric method for determining the number of viable cells, is based on the bioreduction of 3-(4,5-dimethylthiazol-2-yl)-5-(3-carboxymethoxyphenyl)-2-(4-sulfophenyl)-2H-tetrazolium (MTS) by cells to a formazan product that is soluble in cell culture medium, can be detected spectrophotometrically and was performed according to the manufacturer's recommended conditions. Ba/F3 cells were exposed to treatment for 72 hours and the number of cells used per experiment determined empirically to assure linear growth kinetics over that time period. All experimental points were set up in six to twelve wells and all experiments were repeated at least three times. […] The curves were fitted using a non-linear regression model with a sigmoidal dose response.

[1] = target: EGFR Del/T790M/L718Q Ba/F3 cells (Homo sapiens, UniProt P00533, L718Q/T790M, cells depend on it, form not given); details: 1.0 μM drug
From the text: (§2) The specific cDNAs encoding the oncogenic alterations (EGFR: Del 19, L858R, L718Q, L844V, Del/T790M, L858R/T790M, Del 19/L718Q, Del 19/L844V, Del 19/T790M/L718Q and L858R/T790M/L718Q; FGFR: TEL-FGFR1, TEL-FGFR2, TEL-FGFR1 V561M, TEL-FGFR2 V561M; ALK: EML4-ALK; ROS1: CD74-ROS1) were cloned into the pDNA-Dual (BD Biosciences) vector using standard molecular biology techniques. Mutations were introduced using site-directed mutagenesis (Agilent) with mutant specific primers according to the manufacturer's instructions. All constructs were confirmed by DNA sequencing. The constructs were introduced into Ba/F3 cells using retroviral infection. Polyclonal cell lines were established by puromycin selection and subsequently cultured in the absence of interleukin-3 (IL-3). Uninfected Ba/F3 cells or cell lines expressing green fluorescent protein (GFP) were used as controls.
as §1

[2] = target: EGFR Del/T790M Ba/F3 cells (Homo sapiens, UniProt P00533, T790M, cells depend on it, form not given); assay: Ba/F3 cell growth inhibition (MTS assay), EGFR Del/T790M; details: for EGFR activity (% Control, 100 nM drug) DEL/T790M: Table F
From the text: as §2, §1

EGFR Del Ba/F3 cells = EGFR Del Ba/F3 cells (Homo sapiens, UniProt P00533, cells depend on it, form not given); assay: Ba/F3 cell growth inhibition (MTS assay), EGFR Del; details: for EGFR activity (% Control, 100 nM drug) Del: Table F
From the text: as §2, §1

EGFR L858R Ba/F3 cells = EGFR L858R Ba/F3 cells (Homo sapiens (Human), UniProt P00533, L858R); assay: Ba/F3 cell growth inhibition (MTS assay), EGFR L858R; details: for EGFR activity (% Control, 100 nM drug) L858R: Table F
From the text: as §2, §1

[3] = target: EGFR L858R/T790M Ba/F3 cells (Homo sapiens (Human), UniProt P00533, L858R/T790M); assay: Ba/F3 cell growth inhibition (MTS assay), EGFR L858R/T790M; details: 100 nM drug; Table F
From the text: as §2, §1

[4] = target: EGFR L858R/T790M/L718Q Ba/F3 cells (Homo sapiens (Human), UniProt P00533, L718Q/L858R/T790M); assay: Ba/F3 cell growth inhibition (MTS assay), EGFR L858R/T790M/L718Q; details: 100 nM drug; Table F
From the text: as §2, §1

[5] = target: EGFR L718Q/L858R Ba/F3 cells (Homo sapiens (Human), UniProt P00533, L718Q/L858R); assay: Ba/F3 cell growth inhibition (MTS assay), EGFR L858R/L718Q; details: 100 nM drug; Table F

SMILES | EGFR activity (% Control, 1.0 μM drug) Assay 1 KIF5B/Ret_V804M (KIF5B/Ret_V804M) | EGFR activity (% Control, 1.0 μM drug) Assay 1 Del/T790M/L718Q [1] | EGFR activity (% Control, 1.0 μM drug) Assay 2 Del/T790M/L718Q [1] | EGFR activity (% Control, 1.0 μM drug) Assay 1 Del/T790M ([2]; 1.0 μM drug, Assay 1) | EGFR activity (% Control, 1.0 μM drug) Assay 2 Del/T790M ([2]; 1.0 μM drug) | EGFR activity (% Control, 1.0 μM drug) Assay 1 Del (EGFR Del Ba/F3 cells; 1.0 μM drug, Assay 1) | EGFR activity (% Control, 1.0 μM drug) Assay 2 Del (EGFR Del Ba/F3 cells; 1.0 μM drug) | EGFR activity (% Control, 1.0 μM drug) Assay 1 L858R (EGFR L858R Ba/F3 cells; 1.0 μM drug, Assay 1) | EGFR activity (% Control, 1.0 μM drug) Assay 2 L858R (EGFR L858R Ba/F3 cells; 1.0 μM drug) | EGFR activity (% Control, 100 nM drug) DEL/T790M [2] | EGFR activity (% Control, 100 nM drug) L858R/T790M [3] | EGFR activity (% Control, 100 nM drug) Del (EGFR Del Ba/F3 cells) | EGFR activity (% Control, 100 nM drug) L858R/T790M/L718Q [4] | EGFR activity (% Control, 100 nM drug) L858R (EGFR L858R Ba/F3 cells) | EGFR activity (% Control, 100 nM drug) L858R/L718Q [5] | KIF5B/Ret_V804M Ba/F3 cell growth (% control, 1.0 μM drug) (KIF5B/Ret_V804M; Assay 1) | EGFR activity (% Control, 1.0 μM drug) Assay 1 Del/T790M [2] | EGFR activity (% Control, 1.0 μM drug) Assay 1 Del (EGFR Del Ba/F3 cells) | EGFR activity (% Control, 1.0 μM drug) Assay 1 L858R (EGFR L858R Ba/F3 cells)
C=CC(=O)Nc1ccc(OC)c(N(C(=O)Nc2c(C)cccc2C)c2cc(Nc3ccc(N4CCN(CC)CC4)cc3)ncn2)c1 [Compound 8A] | 108 % Control | 113 % Control | 93 % Control | 1 % Control | 100 % Control | 3 % Control | 72 % Control | 2 % Control | 10 % Control |  |  |  |  |  |  |  |  |  | 
C=CC(=O)Nc1cccc(N(C(=O)Nc2ccccc2Cl)c2cc(Nc3ccc(N4CCN(C)CC4)cc3OC)ncn2)c1 [Compound 11A] | 103 % Control | 84 % Control | 82 % Control | 1 % Control | 5 % Control | 3 % Control | 4 % Control | 2 % Control | 3 % Control |  |  |  |  |  |  |  |  |  | 
C=CC(=O)Nc1cccc(N(C(=O)Nc2ccc(F)c(Cl)c2)c2cc(Nc3ccc(N4CCN(C)CC4)cc3OC)ncn2)c1 [Compound 22A] |  |  |  |  |  |  |  |  |  | 84 % Control | 4 % Control | 3 % Control | 106 % Control | 3 % Control | 84 % Control |  |  |  | 
CN(C)C/C=C/C(=O)Nc1cccc(Nc2cc(N(C)C(=O)Nc3ccccc3)ncn2)c1 [Compound 21A] |  |  |  |  |  |  |  |  |  | 107 % Control | 100 % Control | 10 % Control | 102 % Control | 4 % Control | 94 % Control |  |  |  | 
C=CC(=O)Nc1cccc(Nc2cc(N(C)C(=O)Nc3ccccc3)ncn2)c1 [Compound 13A] |  |  |  |  |  |  |  |  |  | 90 % Control | 71 % Control | 13 % Control | 89 % Control | 3 % Control | 90 % Control |  |  |  | 
COc1ccc(NC(=O)/C=C/CN(C)C)cc1Nc1ncc2c(n1)N(C)C(=O)N(c1ccccc1)C2 [Compound 7A, (E)-4-(dimethylamino)-N-(4-methoxy-3-((8-methyl-7-oxo-6-phenyl-5,6,7,8-tetrahydropyrimido[4,5-d]pyrimidin-2-yl)amino)phenyl)but-2-enamide] |  |  |  |  |  |  |  |  |  | 94 % Control | 102 % Control | 35 % Control | 106 % Control | 5 % Control | 96 % Control |  |  |  | 
Cc1ccc(C(=O)Nc2ccc(CN3CCN(C)CC3)c(C(F)(F)F)c2)cc1C#Cc1cnc2cccnn12 [Ponatinib] |  | 48 % Control |  |  |  |  |  |  |  |  |  |  |  |  |  | 2 % Control | 79 % Control | 17 % Control | 98 % Control
C=CC(=O)Nc1ccc(OC)c(Nc2cc(N(C)C(=O)NCc3ccccc3)ncn2)c1 [Compound 16A] |  |  |  |  |  |  |  |  |  | 86 % Control | 71 % Control | 78 % Control | 92 % Control | 117 % Control | 75 % Control |  |  |  | 
C=CC(=O)Nc1cccc(N(C(=O)Nc2ccccc2)c2cc(NC)ncn2)c1 [Compound 14A] |  |  |  |  |  |  |  |  |  | 98 % Control | 75 % Control | 24 % Control | 87 % Control | 1 % Control | 76 % Control |  |  |  | 
C=CC(=O)Nc1ccc(OC)c(Nc2cc(N(C(=O)Nc3c(C)cccc3C)c3ccc(N4CCN(CC)CC4)cc3)ncn2)c1 [Compound 9A] | 93 % Control | 90 % Control | 86 % Control | 2 % Control | 39 % Control | 3 % Control | 4 % Control | 2 % Control | 2 % Control |  |  |  |  |  |  |  |  |  | 
C=CC(=O)Nc1ccc(OC)c(Nc2cc(N(C)C(=O)Nc3ccccc3)ncn2)c1 [Compound 12A] |  |  |  |  |  |  |  |  |  | 117 % Control | 48 % Control | 0 % Control | 84 % Control | 1 % Control | 47 % Control |  |  |  | 
